Patent US10618904B2 (priority 2016, dated 2020)
≈ marks a conversion by molar mass, not a printed value. Where “and” joins values, the source holds several entries; their conditions need not be identical. Equal values may be shown once. Read-outs that look alike come from different tables or passages of the source.

What was measured:
[1] = Activity of degradation impurity relative to compound of formula (I); details: fraction of parent activity
Protocol: [drawing 4] the impurity having an activity which is 1/300 of that of the compound of formula (I). […] Whether the stability is good or not is also a key factor in selecting the crystal form of the compound. Accordingly, it is preferred in the present invention that the hydrobromide of the compound of the formula (I) is present in the form of α crystal form. […] In the differential scanning calorimetry of the α crystal form, there is a melting endothermic peak at 170° C.±2° C. Therefore, in the present invention, the structure of the α crystal form is defined by the above-mentioned powder diffraction characteristic peaks and DSC melting peak, and on the basis of this definition, the α crystal form can be clearly distinguished from other three crystal forms.

[2] = Solubility in water of screened salts (Table 2)
From the text: (§1) In order to achieve the above water solubility goal, the inventors have conducted studies from various aspects, e.g., crystal forms of existing salts, preparation excipients, formation of new salt types, etc., hoping to find a feasible means that can improve water solubility while ensuring better druggability.

[3] = Hygroscopicity of screened salts (Table 2); assay type: physicochemical
From the text: as §1

[4] = prior art information; cited from earlier work
[5] = cited from earlier work
[6] = statement of CN103221414B / CN201280003321.6, cited from earlier work
[7] = 40 degrees, RH75% closed, 4 weeks
[8] = 40 degrees, RH75% closed and 60 degrees open, 34 days

Cc1cnc2n1-c1ccc(Br)cc1C(c1ccccn1)=N[C@H]2CCC(=O)O
activity relative to that of the compound of formula (I) [1]: 1/300

COC(=O)CC[C@@H]1N=C(c2ccccn2)c2cc(Br)ccc2-n2c(C)cnc21
solubility ([2]; water): > 100 mg/mL

O=S(=O)(O)c1cccc2c(S(=O)(=O)O)cccc12 [1,5-naphthalene disulfonate]
Solubility in water [2]: 1 mg/mL | Hygroscopicity (%) [3]: 15.9%

COC(=O)CC[C@@H]1N=C(c2ccccn2)c2cc(Br)ccc2-n2c(C)cnc21.O=S(=O)(O)O [(bi)sulfate form 1]
Hygroscopicity (%) [3]: 0.1%

COC(=O)CC[C@@H]1N=C(c2ccccn2)c2cc(Br)ccc2-n2c(C)cnc21.O=S(=O)(O)O [(bi)sulfate form 2]
Solubility in water [2]: >100 mg/mL | Hygroscopicity (%) [3]: 24.9%

COC(=O)CC[C@@H]1N=C(c2ccccn2)c2cc(Br)ccc2-n2c(C)cnc21.Cl [Hydrochloride]
Solubility in water [2]: >100 mg/mL | Hygroscopicity (%) [3]: 2.8%

COC(=O)CC[C@@H]1N=C(c2ccccn2)c2cc(Br)ccc2-n2c(C)cnc21.O=S(=O)(O)c1ccccc1 [Remimazolam besylate]
Solubility in water [4]: 8.3 mg/mL | degradation [5, 7]: 0.5%

COC(=O)CC[C@@H]1N=C(c2ccccn2)c2cc(Br)ccc2-n2c(C)cnc21 [Remimazolam esylate]
Solubility in water [4]: 7.8 mg/mL (≈ 17.8 mM) | degradation [5, 7]: 0.2%

COC(=O)CC[C@@H]1N=C(c2ccccn2)c2cc(Br)ccc2-n2c(C)cnc21.Cc1ccc(S(=O)(=O)O)cc1 [Remimazolam tosylate]
toxicity compared with besylate / benzene sulfonic acid [6]: less toxic than benzene sulfonic acid | toxicity compared with besylate / benzene sulfonic acid ([6]; listed as tosylate of the compound of the formula (I)): less toxic than besylate | Solubility in water [4]: ~10 mg/mL and ~11 mg/mL

COC(=O)CC[C@@H]1N=C(c2ccccn2)c2cc(Br)ccc2-n2c(C)cnc21 [Remimazolam, methyl 3-[(4s)-8-bromo-1-methyl-6-(2-pyridyl)-4H-imidazol[1,2-a][1,4]benzodiazepine-4-yl] propionate]
Solubility in water (mg/mL) [2]: almost | Hygroscopicity (%) ([3]; listed as Free base): 1.7% | Solubility in water [4]: Almost insoluble in water | appearance change [5, 8]: yellowing at 40 degrees, RH75% closed and 60 degrees | degradation [5, 8]: 1.5-8% | stability of sample ([5]; 40° C./75% relative humidity (open), reported in CN101501019): deliquescent, discolored, and significantly reduced in content

COC(=O)CC[C@@H]1N=C(c2ccccn2)c2cc(Br)ccc2-n2c(C)cnc21 [crystal form 1]
Solubility in water [2]: >100 mg/mL | Hygroscopicity (%) ([3]; listed as Hydrobromide crystal form 1): 4.6%

COC(=O)CC[C@@H]1N=C(c2ccccn2)c2cc(Br)ccc2-n2c(C)cnc21 [crystal form 2]
Solubility in water [2]: >100 mg/mL

COC(=O)CC[C@@H]1N=C(c2ccccn2)c2cc(Br)ccc2-n2c(C)cnc21 [crystal form 3]
Solubility in water [2]: >100 mg/mL | Hygroscopicity (%) ([3]; listed as Hydrobromide crystal form 3): 5%

COC(=O)CC[C@@H]1N=C(c2ccccn2)c2cc(Br)ccc2-n2c(C)cnc21 [α crystal form]
Solubility in water [2]: >100 mg/mL | Hygroscopicity (%) ([3]; listed as Hydrobromide crystal form α): 2.5%
